Measured values: article PMC10590377, “Synthesis of novel coumarin-based thiosemicarbazones and their implications in diabetic management via in-vitro and in-silico approaches” (Scientific Reports, 2023)
Values joined by “and” are separate entries in the source; they are usually repeats but may differ in a detail not shown here. Equal entries are not always repeated. “Also recorded” adds a separate entry of the source.

Assays:
[1] = test system: α-glucosidase; assay: In-vitro α-glucosidase inhibition assay (4-nitro phenyl α-D-glucopyranoside substrate); type: biochemical; details: for Percent inhibition (0.5 mM): test samples 0.5 mM; for IC50: triplicate, ± SEM
Procedure: The most recent investigations were carried out utilizing the techniques we previously discussed. The enzyme and substrate were dissolved in phosphate buffer (pH 6.8) which also served as the reaction buffer for the experiments. A 96-well plate was used for the following ingredients: enzyme 2 U/2 mL, test samples (0.5 mM), 20 µL/well, enzyme 20 µL/well, and 135 µL/well reaction buffer. The plate was incubated for 15 min at 37 °C. Changes in absorbance brought on by substrate breakdown were measured at 400 nm for 30 min after each well-received 25 µL of 4-nitro phenyl α-D-glucopyranoside.
The formula below was used to compute the percent inhibition of all drugs tested.1 the%Inhibition=100-O.Dtestcompound/O.Dcontrol×100
EZ-FIT (Perrella Scientific, Inc., USA) to calculate the IC50 for all antidiabetic agents under the study.

[2] = test system: α-glucosidase; assay: Kinetic studies of α-glucosidase inhibition (Lineweaver–Burk, secondary replot, Dixon plots); type: biochemical; details: for type / mode of inhibition: Lineweaver–Burk plots; for Ki: secondary replot of Lineweaver–Burk plots, reconfirmed by Dixon plots
Description: In such types of inhibition, the Vmax of the enzyme remains constant, while the Km value increases (Fig. 3). Lineweaver–Burk plots were used to determine the type of inhibition of the given compounds, in which the reciprocal of the reaction rate was plotted vs. the reciprocal of substrate concentrations to investigate their effect on the Km and Vmax of the α-glucosidase (Fig. 3). To determine the Ki values for all compounds evaluated for kinetics study secondary replot of Lineweaver–Burk plots were applied by taking the slope of each line in Lineweaver–Burk plots vs. different concentrations of the tested compounds. Further Dixon plots were used for the reconfirmation of Ki values (Fig. 3).
Figure 3 The inhibitory mode of 3c, 3g and 3i against α-glucosidase enzyme (A) Line weaver-Burk plot of reciprocal of rate of reaction (velocities) vs reciprocal of substrate p-nitro phenyl-α-D-glucopyranoside in the absence of (filled black square), and in the presence of 7.00 (filled black circle), 3.50 (open circle) and 1.75 µM (open square) of 3c, 3g and 3i. (B) Secondary replot of Line weaver-Burk plot between the slopes of each line on Line weaver-Burk plot against different concentrations of 3c, 3g and 3i. (C) Dixon plot of reciprocal of rate of reaction (velocities) vs different concentrations of 3c, 3g and 3i.

Row | Structure (SMILES) | Percent inhibition (0.5 mM) [1] [%] | IC50 [1] | type / mode of inhibition [2] | Ki [2] [µM]
1 | CNC(=S)N/N=C/c1c(Cl)c2ccccc2oc1=O [Compound 3m, (E)-2-((4-chloro-2-oxo-2H-chromen-3-yl)methylene)-N-methylhydrazine-1-carbothioamide] | 91.37 | 24.2 ± 0.31 µM |  | 
2 | COc1cccc(NC(=S)N/N=C/c2c(Cl)c3ccccc3oc2=O)c1 [Compound 3b, (E)-2-((4-chloro-2-oxo-2H-chromen-3-yl)methylene)-N-(3-methoxyphenyl)hydrazine-1-carbothioamide] | 94.67 | 6.1 ± 0.11 µM |  | 
3 | O=c1oc2ccccc2c(Cl)c1/C=N/NC(=S)Nc1cccc(Cl)c1Cl [Compound 3k, (E)-2-((4-chloro-2-oxo-2H-chromen-3-yl)methylene)-N-(2,3-dichlorophenyl) hydrazine-1-carbothioamide] | 92.54 | 4.22 ± 0.1 µM |  | 
4 | O=c1oc2ccccc2c(Cl)c1/C=N/NC(=S)Nc1ccccc1F [Compound 3l, (E)-2-((4-chloro-2-oxo-2H-chromen-3-yl)methylene)-N-(2-fluorophenyl) hydrazine-1-carbothioamide] | 92.08 | 8.84 ± 0.16 µM |  | 
5 | O=c1oc2ccccc2c(Cl)c1/C=N/NC(=S)NCCc1ccccc1 [Compound 3g, (E)-2-((4-chloro-2-oxo-2H-chromen-3-yl)methylene)-N-phenethylhydrazine-1-carbothioamide] | 95.15 | 2.33 ± 0.04 µM | competitive inhibitor | 1.33 ± 0.0027
6 | COc1ccc(NC(=S)N/N=C/c2c(Cl)c3ccccc3oc2=O)cc1 [Compound 3h, (E)-2-((4-chloro-2-oxo-2H-chromen-3-yl)methylene)-N-(4-methoxyphenyl) hydrazine-1-carbothioamide] | 94.63 | 3.4 ± 0.08 µM |  | 
7 | O=c1oc2ccccc2c(Cl)c1/C=N/NC(=S)NC1CCCCC1 [Compound 3f, (E)-2-((4-chloro-2-oxo-2H-chromen-3-yl)methylene)-N-cyclohexylhydrazine-1-carbothioamide] | 91.70 | 11.2 ± 0.24 µM |  | 
8 | O=c1oc2ccccc2c(Cl)c1/C=N/NC(=S)NCc1ccccc1 [Compound 3d, (E)-N-benzyl-2-((4-chloro-2-oxo-2H-chromen-3-yl)methylene) hydrazine-1-carbothioamide] | 91.20 | 12.6 ± 0.16 µM |  | 
9 | Cc1ccc(NC(=S)N/N=C/c2c(Cl)c3ccccc3oc2=O)cc1 [Compound 3e, (E)-2-((4-chloro-2-oxo-2H-chromen-3-yl)methylene)-N-(p-tolyl) hydrazine-1-carbothioamide] | 92.75 | 9.11 ± 0.2 µM |  | 
10 | C[C@H]1O[C@H](O[C@H]2[C@H](O)[C@@H](O)[C@@H](O[C@H]3[C@H](O)[C@@H](O)C(O)O[C@@H]3CO)O[C@@H]2CO)[C@H](O)[C@@H](O)[C@@H]1N[C@H]1C=C(CO)[C@@H](O)[C@H](O)[C@H]1O (stereo partly drawn) [acarbose, reference compound] | 59.37 |  |  | 
11 | O=c1oc2ccccc2c(Cl)c1/C=N/NC(=S)Nc1ccc([N+](=O)[O-])cc1 [Compound 3i, (E)-2-((4-chloro-2-oxo-2H-chromen-3-yl)methylene)-N-(4-nitrophenyl) hydrazine-1-carbothioamide] | 95.30 | 2.13 ± 0.04 µM | competitive inhibitor | 1.51 ± 0.0086
12 | Cc1cccc(C)c1NC(=S)N/N=C/c1c(Cl)c2ccccc2oc1=O [Compound 3j, (E)-2-((4-chloro-2-oxo-2H-chromen-3-yl)methylene)-N-(2,6-dimethylphenyl) hydrazine-1-carbothioamide] | 91.29 | 22.1 ± 0.37 µM |  | 
13 | O=c1oc2ccccc2c(Cl)c1/C=N/NC(=S)Nc1ccccc1 [Compound 3a, (E)-2-((4-chloro-2-oxo-2H-chromen-3-yl)methylene)-N-phenylhydrazine-1-carbothioamide] | 92.45 | 10 µM and 10.1 µM |  | 
14 | O=c1oc2ccccc2c(Cl)c1/C=N/NC(=S)Nc1cc(Cl)c(Cl)cc1Cl [Compound 3c, (E)-2-((4-chloro-2-oxo-2H-chromen-3-yl)methylene)-N-(2,4,5-trichlorophenyl) hydrazine-1-carbothioamide] | 94.68 | 2.57 ± 0.03 µM | competitive inhibitor; also recorded: concentration-dependent inhibition | 1.62 ± 0.041
